Measurements reported in BigSolDB 2.1.

O=c1c2ccccc2sc2ccc(Cl)cc12
Conditions | solubility (mole fraction)
in 1,2-dichloroethane, 291.55 K | 0.0108
in 1,2-dichloroethane, 293.05 K | 0.0114
in 1,2-dichloroethane, 294.95 K | 0.0121
in 1,2-dichloroethane, 297.05 K | 0.0131
in 1,2-dichloroethane, 299.15 K | 0.0139
in 1,2-dichloroethane, 301.25 K | 0.015
in 1,2-dichloroethane, 306.25 K | 0.0173
in 1,2-dichloroethane, 311.35 K | 0.0195
in 1,2-dichloroethane, 316.35 K | 0.022
in 1,2-dichloroethane, 321.45 K | 0.0247
in 1,2-dichloroethane, 326.75 K | 0.0275
in 1,2-dichloroethane, 331.55 K | 0.0307
in 1,4-dioxane, 290.35 K | 0.00155
in 1,4-dioxane, 295.45 K | 0.00263
in 1,4-dioxane, 300.45 K | 0.00398
in 1,4-dioxane, 305.55 K | 0.00552
in 1,4-dioxane, 310.45 K | 0.00703
in 1,4-dioxane, 315.55 K | 0.00882
in 1,4-dioxane, 320.45 K | 0.0105
in 1,4-dioxane, 326.35 K | 0.0128
in 1,4-dioxane, 331.15 K | 0.0145
in 2-butanone, 292.15 K | 0.00488
in 2-butanone, 297.05 K | 0.00587
in 2-butanone, 301.95 K | 0.00695
in 2-butanone, 306.65 K | 0.00834
in 2-butanone, 311.25 K | 0.0101
in 2-butanone, 316.15 K | 0.0119
in 2-butanone, 321.25 K | 0.0145
in 2-butanone, 326.55 K | 0.017
in 2-butanone, 331.55 K | 0.0208
in 2-butanone, 335.95 K | 0.024
in THF, 291.85 K | 0.00658
in THF, 296.95 K | 0.00767
in THF, 302.15 K | 0.00869
in THF, 307.25 K | 0.00967
in THF, 312.25 K | 0.0106
in THF, 317.25 K | 0.0113
in THF, 322.25 K | 0.0118
in THF, 327.55 K | 0.0124
in THF, 332.85 K | 0.0127
in acetone, 289.15 K | 0.00244
in acetone, 294.75 K | 0.00278
in acetone, 299.15 K | 0.00306
in acetone, 303.65 K | 0.00335
in acetone, 309.25 K | 0.00381
in acetone, 313.35 K | 0.00425
in acetone, 319.15 K | 0.00498
in acetone, 323.35 K | 0.00579
in acetone, 329.25 K | 0.00692
in acetonitrile, 289.15 K | 0.000623
in acetonitrile, 294.35 K | 0.000768
in acetonitrile, 299.45 K | 0.00093
in acetonitrile, 305.15 K | 0.00114
in acetonitrile, 309.85 K | 0.00133
in acetonitrile, 315.15 K | 0.0016
in acetonitrile, 319.75 K | 0.0019
in acetonitrile, 324.35 K | 0.00226
in acetonitrile, 329.15 K | 0.00265
in ethanol, 287.55 K | 0.000567
in ethanol, 293.15 K | 0.000679
in ethanol, 298.15 K | 0.000795
in ethanol, 303.15 K | 0.000943
in ethanol, 308.35 K | 0.00122
in ethanol, 313.35 K | 0.0015
in ethanol, 318.15 K | 0.0019
in ethanol, 322.15 K | 0.00229
in ethanol, 327.65 K | 0.00296
in ethyl acetate, 289.15 K | 0.00367
in ethyl acetate, 293.15 K | 0.00419
in ethyl acetate, 298.25 K | 0.00502
in ethyl acetate, 303.45 K | 0.00588
in ethyl acetate, 308.25 K | 0.00683
in ethyl acetate, 313.35 K | 0.00786
in ethyl acetate, 318.45 K | 0.00935
in ethyl acetate, 324.65 K | 0.0112
in ethyl acetate, 330.15 K | 0.0129
in isopropanol, 290.25 K | 0.000547
in isopropanol, 295.15 K | 0.000647
in isopropanol, 300.55 K | 0.000757
in isopropanol, 304.75 K | 0.000906
in isopropanol, 310.25 K | 0.0011
in isopropanol, 314.95 K | 0.00137
in isopropanol, 320.35 K | 0.00179
in isopropanol, 325.65 K | 0.00225
in isopropanol, 331.15 K | 0.00292
in methanol, 292.15 K | 0.000192
in methanol, 297.05 K | 0.000236
in methanol, 301.95 K | 0.000279
in methanol, 306.65 K | 0.00036
in methanol, 311.25 K | 0.000414
in methanol, 316.15 K | 0.000535
in methanol, 321.25 K | 0.000665
in methanol, 326.55 K | 0.000878
in methanol, 331.55 K | 0.00112
in methanol, 335.95 K | 0.00134
in n-propanol, 290.65 K | 0.000647
in n-propanol, 295.25 K | 0.000769
in n-propanol, 300.15 K | 0.000896
in n-propanol, 305.55 K | 0.00106
in n-propanol, 310.65 K | 0.00129
in n-propanol, 315.55 K | 0.00156
in n-propanol, 320.65 K | 0.0019
in n-propanol, 325.55 K | 0.0023
in n-propanol, 331.15 K | 0.00277
in toluene, 289.65 K | 0.00915
in toluene, 295.05 K | 0.0112
in toluene, 300.15 K | 0.0138
in toluene, 305.25 K | 0.0164
in toluene, 310.25 K | 0.0193
in toluene, 315.35 K | 0.023
in toluene, 320.35 K | 0.0276
in toluene, 325.25 K | 0.0321
in toluene, 330.25 K | 0.039
